According to patent US10894808B2, “Polypeptide ligands specific for plasma kallikrein” (BicycleRD Limited, priority 2013, dated 2021):
*1 amine or outer side, *2 acyl side, *3 side chain or, on linkers, in order; H or OH if unused. Where a SMILES comes first, the peptide text is derived from it. Bridges are numbered along the chain shown (N, C = ends). [ ]: non-standard residue; d: D form. TBMB = c1c(C[*:1])cc(C[*:3])cc1C[*:2]; hArg = N=C(N)NCCCC[C@H](N)C(=O)O; Aze = O=C(O)[C@@H]1CCN1; Sar = CNCC(=O)O

Key:
human plasma kallikrein = target: T1, human plasma kallikrein (Homo sapiens, UniProt P03952); assay: Functional enzyme assay, inhibition of human plasma kallikrein (Z-PheArg-AMC substrate); type: biochemical
T1 construct: purchased Stratech, UK
In short: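 Buffer 10 mM Tris HCl, 150 mM NaCl, 10 mM MgCl2, 1 mM CaCl2, 1 mg/mL BSA, pH 7.4, 25° C. AMC release read at ex 360/em 460 nm; linear-phase rate (typically 5–45 min) fitted by four-parameter non-linear regression for IC50, with Ki also derived.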

[1] = Pharmacokinetics following intravitreal injection in rabbit; type: in vivo; details: vitreous humour; New Zealand White rabbit, intravitreal 100 μg/eye; read-out: elimination half-life from the vitreous humour
Experimental: In this analysis, peptide Ac-(06-550)-Sar3-(D-Arg)2 Aze3 HArg5 (referred to in this study as Bicycle 1 and which contains the stabilising and affinity enhancing modifications Aze3 and HArg5, and a solubilising C-terminal extension Sar3-(D-Arg)2 (SEQ ID NO: 98); see Examples 3 and 4 herein) was assessed comparatively against the peptide Ac-(06-34-18) Phe2 Aze3 Tyr4 HArg5 Ala(ψCH2NH)6 (referred to in this study as Bicycle 2 and which is disclosed in Table 26b and FIG. 22 of PCT/EP2014/057440). New Zealand White rabbits (2-3 kg) were anaesthetized and both peptides were administered by intravitreal injection (100 μg/eye) according to the protocol described in Table 9.
After an appropriate time, rabbits were euthanized and vitreous humour, aqueous humour, retina and plasma samples were taken. Samples were analysed by LC-MS to determine the concentration of the peptide. The results of this study are shown in FIG. 5 where it can be observed that both peptides were slowly cleared from the vitreous humour, with elimination half-lives of 20-30 h.

[2] = Plasma stability profiling Method #2 (95% plasma, MALDI-TOF), human plasma; type: in vitro ADME; details: qualitative, sampled up to 46 hrs
Experimental: (§1) To obtain stability data more rapidly, peptides were also assessed in 95% plasma. Here, PBS was omitted, and a 1-5 mM peptide stock (in DMSO) was directly diluted into plasma (i.e. 2.5 μL stock into 47.5 μL plasma), giving a final concentration of 50 μM. 5 μL samples were taken at appropriate time points and frozen at −80° C. For analysis, the samples were defrosted, mixed with 25 μL of 3:3:1 acetonitrile:methanol:water, and centrifuged at 13 k for 5 min. 5 μL of the peptide-containing supernatant was aspirated and mixed with 30 mM ammonium bicarbonate in a 1:1 mixture of acetonitrile:H2O. 1 μL of this was then spotted on the MALDI plate and analysed as described above. As above, it should be noted that this is a qualitative assay serves to detect relative changes in plasma stability.

[3] = Plasma stability profiling Method #2 (95% plasma, MALDI-TOF), rat plasma; type: in vitro ADME; details: qualitative, sampled up to 46 hrs
Experimental: as §1

[4] = Intravenous pharmacokinetics in rat; type: in vivo; details: in vivo, Table 8, Sprague Dawley rat, iv 5 mg/kg
Experimental: Peptides used for the pharmacokinetic studies in Example 4 were lyophilised from 10 mM HCl in water 3 times to afford the hydrochloride salts of the compounds. Solutions were dosed by intravenous bolus at 1 mg/mL in 50 mM Hepes pH 7.0, 5% glycerol, 1.9% DMSO for two compounds (Ac-(06-550) Aze3 HArg5 Sar3-(D-Arg2)) and (06-259-02)-Sar3-(D-Arg2)) at 5 mg/kg in Spraguely Dawely rats. Serial blood samples (˜0.2 mL) were taken into EDTA tubes at the indicated time points, and plasma was separated by centrifugation, and frozen at −20 C for analysis. Employing standard bioanalytical techniques, plasma samples were then analysed and quantified for parent remaining compound using a Waters, Xevo TQS LC-MS. PK parameters were determined using the software package PK Solutions 2.0 from Summit Research Services.
Peptides Ac-(06-550)-Sar3-(D-Arg)2Aze3 HArg5 (which contains the stabilising and affinity enhancing modifications Aze3 and HArg5, and a solubilising C-terminal extension Sar3-(D-Arg)2) (SEQ ID NO: 98) and Ac-(06-259-02)-Sar3-(D-Arg)2 were selected for pharmacokinetic assessment in rat. Peptides were injected intravenously in buffered solution at 1 mg/mL at 5 mg/kg Sprague Dawley rats, and blood was sampled and analysed for peptide concentrations at a number of time points post injection.

T1 sequence (P03952 391-638 limits assumed): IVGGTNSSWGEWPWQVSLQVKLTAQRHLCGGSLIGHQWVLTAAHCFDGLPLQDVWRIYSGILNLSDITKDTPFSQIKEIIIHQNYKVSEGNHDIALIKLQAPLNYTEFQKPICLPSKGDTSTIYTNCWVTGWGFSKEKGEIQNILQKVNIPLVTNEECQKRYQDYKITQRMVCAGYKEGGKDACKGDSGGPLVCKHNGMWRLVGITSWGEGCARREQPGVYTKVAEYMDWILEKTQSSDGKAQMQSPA
T1 sequence (P03952 20-390 partner limits assumed): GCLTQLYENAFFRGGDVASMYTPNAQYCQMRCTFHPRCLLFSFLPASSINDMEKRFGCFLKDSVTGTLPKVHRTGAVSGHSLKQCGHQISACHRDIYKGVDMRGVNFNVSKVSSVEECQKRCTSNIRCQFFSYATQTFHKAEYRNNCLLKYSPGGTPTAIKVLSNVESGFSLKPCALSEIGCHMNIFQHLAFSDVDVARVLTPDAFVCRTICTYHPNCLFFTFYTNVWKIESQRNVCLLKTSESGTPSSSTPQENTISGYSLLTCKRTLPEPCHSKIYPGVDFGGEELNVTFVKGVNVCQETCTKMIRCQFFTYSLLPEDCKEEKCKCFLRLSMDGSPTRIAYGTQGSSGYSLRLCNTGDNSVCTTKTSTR

## CC[C@H](C)[C@@H]1NC(=O)[C@H](CC(=O)O)NC(=O)[C@@H]2CCCN2C(=O)[C@H](Cc2ccc(O)cc2)NC(=O)[C@H](Cc2ccc(O)cc2)NC(=O)[C@H](C(C)C)NC(=O)[C@@H]2CSCc3cc(cc(c3)CSC[C@@H](C(=O)N[C@@H](C)C(=O)N(C)CC(=O)N(C)CC(=O)N(C)CC(=O)N[C@H](CCCNC(=N)N)C(=O)N[C@H](CCCNC(=N)N)C(N)=O)NC1=O)CSC[C@H](NC(C)=O)C(=O)N[C@@H](CO)C(=O)N[C@@H](Cc1ccccc1)C(=O)N1CC[C@H]1C(=O)N[C@@H](Cc1ccc(O)cc1)C(=O)N[C@@H](CCCCNC(=N)N)C(=O)N2 [Ac-(06-550)-Sar3-(DArg2) Aze3HArg5] (Ac-CSF[Aze]Y[hArg]CVYYPDICA[Sar][Sar][Sar][dR][dR]-NH2; linker 1-7-14 via TBMB; C-terminus assumed)
Human plasma kallikrein
  Ki: 400 pM
[1]
  half-life: 20 to 30 h
[2]
  comparative stability in human plasma: high stability
[2]; listed as 06-550 derivative
  comparative stability in human plasma: Little degradation is observed
[3]
  comparative stability in rat plasma: high stability
[3]; listed as 06-550 derivative
  comparative stability in rat plasma: Little degradation is observed
[4]
  clearance: 17 mL/min/kg
[4]; read-out: Vss
  Vd: 0.4 L/kg
[4]; read-out: t1/2 elimination
  half-life: 2.27 h
